From patent US8138174B2, “Compounds with a combination of cannabinoid CB1 antagonism and serotonin reuptake inhibition” (Solvay Pharmaceuticals B.V., priority 2007, dated 2012)
Like-named read-outs stand apart in the source and are kept apart here.

Key:
[1] = biological target: human cannabinoid CB1 receptor (Homo sapiens, UniProt P21554); assay: In vitro affinity for human cannabinoid CB1 receptors ([3H]CP-55,940 binding, CHO cell membranes); settings: radioligand [3H]-CP-55,940; membranes of CHO cells stably transfected with human CB1 receptor; read-out: CB1 receptor binding [3H]-CP-55,940 pKi (converted)
Experimental: In vitro affinity for human cannabinoid CB1 receptors
After incubation of a freshly prepared cell membrane preparation with the [^3H]-ligand, with or without addition of compounds of the invention, separation of bound and free ligand is performed by filtration over glassfiber filters. Radioactivity on the filter is measured by liquid scintillation counting.

serotonin reuptake sites = biological target: T1, serotonin reuptake sites (Rattus norvegicus, UniProt P31652); assay: In vitro affinity for serotonin reuptake sites ([3H]-paroxetine binding, Habert 1985)
T1 construct: from tissue

[2] = radioligand [3H]-paroxetine, read-out: 5-HT reuptake binding [3H]-paroxetine pKi (converted)

T1 sequence (P31652 whole entry): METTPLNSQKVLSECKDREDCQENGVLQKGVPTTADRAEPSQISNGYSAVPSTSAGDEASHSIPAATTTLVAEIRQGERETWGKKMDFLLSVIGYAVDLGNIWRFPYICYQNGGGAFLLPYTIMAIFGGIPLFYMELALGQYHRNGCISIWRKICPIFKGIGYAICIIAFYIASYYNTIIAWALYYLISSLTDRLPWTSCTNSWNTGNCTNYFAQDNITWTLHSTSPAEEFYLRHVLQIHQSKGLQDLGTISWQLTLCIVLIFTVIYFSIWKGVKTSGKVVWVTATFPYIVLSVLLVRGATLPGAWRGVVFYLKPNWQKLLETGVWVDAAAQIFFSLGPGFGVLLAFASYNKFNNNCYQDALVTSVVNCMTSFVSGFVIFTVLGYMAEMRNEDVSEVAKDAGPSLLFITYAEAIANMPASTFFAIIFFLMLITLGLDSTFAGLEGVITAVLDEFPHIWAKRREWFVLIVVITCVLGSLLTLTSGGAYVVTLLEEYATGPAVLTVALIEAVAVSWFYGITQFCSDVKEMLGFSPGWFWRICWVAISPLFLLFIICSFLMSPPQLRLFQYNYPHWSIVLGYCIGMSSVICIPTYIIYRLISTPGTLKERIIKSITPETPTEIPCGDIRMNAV
Chain of human cannabinoid CB1 receptor (P21554 whole entry): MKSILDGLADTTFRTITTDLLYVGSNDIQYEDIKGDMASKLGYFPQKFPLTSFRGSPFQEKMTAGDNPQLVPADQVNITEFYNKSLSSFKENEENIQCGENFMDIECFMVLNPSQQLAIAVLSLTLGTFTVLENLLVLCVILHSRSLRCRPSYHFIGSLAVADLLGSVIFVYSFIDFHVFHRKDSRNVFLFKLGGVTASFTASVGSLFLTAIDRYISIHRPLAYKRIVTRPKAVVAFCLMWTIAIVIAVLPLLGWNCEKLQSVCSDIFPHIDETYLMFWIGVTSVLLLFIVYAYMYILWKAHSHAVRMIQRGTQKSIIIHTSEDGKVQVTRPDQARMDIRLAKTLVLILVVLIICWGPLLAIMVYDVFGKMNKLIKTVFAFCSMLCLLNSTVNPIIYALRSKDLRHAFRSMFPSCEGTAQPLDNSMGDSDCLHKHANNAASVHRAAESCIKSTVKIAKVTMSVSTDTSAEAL

| Structure (SMILES) | Ki [1] | Ki (serotonin reuptake sites; [2]) | other results |
| --- | --- | --- | --- |
| Fc1ccc2[nH]cc(CCCCN3CCNCC3)c2c1 [compound A] | > 1000 nM | – | Ki (serotonin reuptake sites): 1.26 nM |
| CN=C(NS(=O)(=O)c1ccc(Cl)cc1)N1C[C@H](c2ccccc2)C(c2ccc(Cl)cc2)=N1 [SLV319] | – | > 10000 nM | – |
| CN(C)CCCN1c2ccccc2CCc2ccccc21 [imipramine] | > 1000 nM | – | – |
| Cc1c(C(=O)NN2CCCCC2)nn(-c2ccc(Cl)cc2Cl)c1-c1ccc(Cl)cc1 [rimonabant] | – | 5010 nM | – |
| Fc1ccc([C@@H]2CCNC[C@H]2COc2ccc3c(c2)OCO3)cc1 [paroxetine] | > 1000 nM | – | – |
| CN(C)CCC=C1c2ccccc2CCc2ccccc21 [amitriptyline] | > 10000 nM | – | – |
| c1ccc2c(CCC3CCNCC3)c[nH]c2c1 [indalpine] | > 1000 nM | – | 5-HT reuptake binding [3H]-paroxetine pKi (serotonin reuptake sites; radioligand [3H]-paroxetine): 8.6 |
| CN[C@H]1CC[C@@H](c2ccc(Cl)c(Cl)c2)c2ccccc21 [sertraline] | > 10000 nM | – | – |
| CCc1c(C(=O)NN2CCCCC2)nc(-c2ccccc2Cl)n1-c1ccc(Cl)cc1 [WO 03/027076] | – | – | affinity for 5-HT reuptake sites / serotonin reuptake inhibition (in words) (serotonin reuptake sites): completely inactive; Ki (serotonin reuptake sites; read-out: 5-HT reuptake binding [3H]-paroxetine pKi (converted)): > 31600 nM |
| CCc1c(C(=O)NCCCCCCC(=NOCCN)c2ccc(C(F)(F)F)cc2)nc(-c2ccccc2Cl)n1-c1ccc(Cl)cc1 (racemic) [Compound 2, 2-(2-Chlorophenyl)-1-(4-chlorophenyl)-5-ethyl-1H-imidazole-4-carboxylic acid [7-(2-amino-ethoxyimino)-7-[4-(trifluoromethyl)phenyl]heptyl]amide] | 39.8 nM | 200 nM | – |
| CN(C)CCCC1(c2ccc(F)cc2)OCc2cc(C#N)ccc21 (stereo not shown) [citalopram] | > 10000 nM | – | – |
| NCCO/N=C(/CCCCCCN/C(=N/S(=O)(=O)c1ccc(Cl)cc1)N1CC(c2ccccc2)C(c2ccc(Cl)cc2)=N1)c1ccc(C(F)(F)F)cc1 (stereo not shown) [Compound 1] | 251 nM | 15.8 nM | affinity for 5-HT reuptake sites / serotonin reuptake inhibition (in words) (serotonin reuptake sites): as potent a serotonin reuptake inhibitor as fluoxetine |
| CCc1c(C(=O)N2CCN(CCCCc3c[nH]c4ccc(F)cc34)CC2)nc(-c2ccccc2Cl)n1-c1ccc(Cl)cc1 [Compound 3, [2-(2-Chlorophenyl)-1-(4-chlorophenyl)-5-ethyl-1H-imidazole-4-yl] {4-[4-(5-flouro-1H-indol-3-yl)butyl]piperazin-1-yl}methanone] | 31.6 nM | 20 nM | – |
| O=S(=O)(/N=C(/N1CCN(CCCCc2c[nH]c3ccc(F)cc23)CC1)N1CC(c2ccccc2)C(c2ccc(Cl)cc2)=N1)c1ccc(Cl)cc1 (stereo not shown) [Compound 4] | 251 nM | 25.1 nM | – |
